This experiment relates to stage III colon cancer. As to the kind of experiment: Studie 90: fluorouracil-based adjuvant chemotherapy, survival by TP53 genotype. The experiment is classed as in vivo, human. Conditions: for five-years survival rate: low risk patients (1-3 positive lymph nodes). An excerpt: Tumor specimens were collected from 411 patients enrolled in a randomised trial of fluorouracil-based adjuvant chemotherapy for stage III colon cancer patients.
Fluorouracil acts according to pathway 1 and is supposed to need a normal p53 for induction of apoptosis. The p53 gene status could be assessed in 389 tumors through standardized, gene specific sequencing of the TP53 gene.

With `O=c1[nH]cc(F)c(=O)[nH]1` [fluorouracil], the five-year survival runs as follows: (entire stage IIIA cohort) 84.5%; (stage IIIA, TP53 mutant) 78%; (stage IIIA, TP53 normal) 91%; (stage IIIB cohort) 63%; (stage IIIB, TP53 mutant) 60%; (stage IIIB, TP53 normal) 79%. In addition, the “interaction between survival and TP53 genotype” value (high-risk stage III patients) is recorded as “no interaction”. Besides, the five-years survival rate is listed as 64.7% (TP53 mutated) and 81% (normal TP53 genotype). The “interaction with TP53 genotype” value by setting is: (mutant TP53 genotype, low-risk stage III patients) “negatively interacts”; (normal p53 genotype, low risk stage III patients (N1 or IIIA and IIIB stage)) “positively interacts”. Further, the “benefit in relation to the TP53 genotype” value (stage IIIC patients) was “no differential benefit”.

The record behind these values is patent publication US20120171305A1, “Response Prediction in Cancer Treatment Involving p53 Adapted Cancer Therapy” (priority 2011, published 2012).
